From paper PMC8508710, “Biochemical Characterization of 13-Lipoxygenases of Arabidopsis thaliana” (International Journal of Molecular Sciences, 2021)

Legend:
LOX4 [1] = target: T1, LOX4 (Arabidopsis thaliana, UniProt Q9FNX8); test: Intrinsic fluorescence of LOX4; format: binding; design: made in house; host or cells: E. coli Nico21(DE3), pET15b; conditions: 156 µM chemical; λExc = 280 nm; control 98.1 ± 3.9
T1 sequence (Q9FNX8 71-926): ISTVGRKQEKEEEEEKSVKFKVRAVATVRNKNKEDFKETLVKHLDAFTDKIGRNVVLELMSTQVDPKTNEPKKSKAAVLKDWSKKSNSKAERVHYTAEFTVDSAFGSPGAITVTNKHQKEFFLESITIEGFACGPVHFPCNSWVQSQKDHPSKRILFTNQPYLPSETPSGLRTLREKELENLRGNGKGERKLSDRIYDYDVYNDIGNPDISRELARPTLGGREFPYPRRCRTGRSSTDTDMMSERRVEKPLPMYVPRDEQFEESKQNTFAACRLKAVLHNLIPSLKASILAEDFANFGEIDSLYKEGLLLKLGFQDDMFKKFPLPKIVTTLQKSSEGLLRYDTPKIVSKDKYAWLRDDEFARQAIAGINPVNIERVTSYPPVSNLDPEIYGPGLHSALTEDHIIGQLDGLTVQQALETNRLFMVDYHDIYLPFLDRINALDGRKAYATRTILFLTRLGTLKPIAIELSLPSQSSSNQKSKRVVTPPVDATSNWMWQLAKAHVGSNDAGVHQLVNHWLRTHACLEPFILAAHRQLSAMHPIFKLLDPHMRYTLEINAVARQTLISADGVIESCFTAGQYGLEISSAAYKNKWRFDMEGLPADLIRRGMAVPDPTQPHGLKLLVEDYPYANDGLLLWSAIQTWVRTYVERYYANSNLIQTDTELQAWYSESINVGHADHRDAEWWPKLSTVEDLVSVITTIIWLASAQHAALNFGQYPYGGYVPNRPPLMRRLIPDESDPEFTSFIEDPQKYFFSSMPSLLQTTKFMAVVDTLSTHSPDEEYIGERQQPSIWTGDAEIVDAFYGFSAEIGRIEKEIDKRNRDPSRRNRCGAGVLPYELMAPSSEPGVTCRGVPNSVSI
Protocol: Figure 5 Analysis of the interaction of 12-OPDA and MJ with LOX4. […] LOX4 (0.22 µg/µL) was incubated with compounds at indicated concentrations for 10 min at 30 °C, and residual LOX activity was measured spectrophotometrically by the injection of 3 µL incubation mixture into 123 µL LeA (4.8 µM in 50 mM Tris-HCl, pH 7.2). […] (B) Intrinsic fluorescence of LOX4 incubated with 12-OPDA, MJ and solvent (control). Here, 120 µL LOX4 (0.2 µg/µL) was mixed with 15 µL chemical (1.4 mM in 50 mM K-Pi, pH 8.0) or solvent (control) and analyzed for intrinsic fluorescence emission after excitation at λExc = 280 nm. Mean graphs are shown (n = 4).

pea root LOX = test: Ex vivo pea root extract LOX activity, oxygen electrode; format: biochemical, Pisum sativum; conditions: 36 µg pea root extract pretreated with 1 mM 12-OPDA
Protocol: To evaluate 12-OPDA as a LOX inhibitor under native conditions, we employed pea roots as a plant LOX source. The reliability was assessed with the criterion that an increase in A234nm and, ideally, oxygen consumption occurred via the injection of plant tissue extract (0.5–2 µg/µL protein in 50 mM Tris-HCl or K-Pi, pH 6.6–8.0) in LeA (tested at 4–100 µM). […] Pea seeds (Pisum sativum “Kleine Rheinländerin”) were placed in darkness for 4 days on moist paper. The emerged roots were cut, frozen in liquid N2, and stored at −80 °C. Frozen tissue (~50 mg/mL) was pulverized in a pre-chilled mortar and immediately ground with 50 mM Tris-HCl, pH 7.2. […]
The immunological detection of 13-LOX was performed, based on. […] After 1 h blocking with blocking solution (1% (w/v) non-fat dry milk in TBST (150 mM NaCl, 50 mM Tris-HCl, pH 7.5, 0.05% tween 20)) and overnight incubation (4 °C) with LOX2 (At3g45140) serum (Agrisera, AS07 258, 1:25,000 in blocking solution), the blot was washed with TBST and incubated (2 h, 25 °C) with horseradish peroxidase-coupled anti-rabbit IgG as second antibody (1:20,000 in blocking solution) for the subsequent luminescence detection of immunodecorated LOX on X-ray films (30 s incubation). […] The mixture was injected in 1.8 mL of 20 µM LeA (in 50 mM Tris-HCl, pH 7.2) and recorded for oxygen consumption.

LOX4 [2] = target: T1, LOX4; test: Free thiols of LOX4 (Ellman, DTNB); design: made in house; host or cells: E. coli Nico21(DE3), pET15b; conditions: LOX4 4.2 µM incubated 20 min with 12-OPDA; control 7.6 ± 0.1
Protocol: The iron content was analyzed as described. Free protein thiols were determined as described in [80] with slight variations. Briefly, 150 µL LOX4 (4.2 µM) was mixed with 1.5 µL 30 mM 12-OPDA (in EtOH) or EtOH (solvent control). After 20 min of incubation at 25 °C, samples were mixed with 10 µL dithionitrobencene (DTNB, 2 mM in 40 mM K-Pi, pH 8.0) and incubated for 30 min in the dark. Samples were measured at 412 nm, ε412nm = 13,600 […] (KC4 microplate reader, Biotec, 25 °C) for determination of the thiol/protein ratio with background correction (150 µL 40 mM K-Pi, pH 8.0, 10 µL DTNB 2 mM, 1.5 µL ligand stock or EtOH).

| Compound | Relative fluorescence emission at 333 nm (LOX4 [1]) | Inhibition of activity (pea root LOX; 20 µM LeA) | Oxygen consumption (pea root LOX; control 4.6 ± 0.5) [nmol/mL/min] | Free thiols (Cys residues) of LOX4 after incubation (LOX4 [2]) [mol·mol^−1] |
| --- | --- | --- | --- | --- |
| CCC=CCC1C(=O)C=CC1CCCCCCCC(=O)O (stereo not drawn) [12-OPDA, cis-(+)-12-oxophytodienoic acid] | 86.2 ± 3.9 | about 43% | 2.0 ± 0.5 | 5.9 ± 0.1 |
| CC/C=C\CC1C(=O)CCC1CC(=O)OC (centres unmarked) [MJ, methyl jasmonate] | 98.0 ± 2.4 | – | – | – |
